How the values were obtained:
H460 cells [1] = experiment: intracellular ATP measurement; assay type: cell-based, human
Description: H460 cells were exposed to the indicated concentrations of MPN-2 and ATP production was examined. Cells were lysed and intracellular ATP determined as described previously. For example, cells were washed (while still adherent) with cold PBS 1×, lysed with Passive Lysis Buffer (1×; Molecular Probes, Invitrogen) added directly to the plates, and immediately harvested by scraping. The lysates were flash frozen (to −80° C.) and thawed (to 37° C.) once to accomplish complete lysis and then centrifuged (at 4° C.) for 30 seconds to clear the lysates. Intracellular ATP levels were determined using a bioluminescence assay (Molecular Probes), utilizing recombinant firefly luciferase and its substrate, D-luciferin. The luminescence was read in a TD-20/20 luminometer (Turner Designs) at 560 nm. The ATP values were calculated using an ATP standard curve. The protein concentrations of the lysates were estimated using the BCA assay (Pierce Biotechnology) and ATP was expressed as pmol/μg protein. All data are expressed as the mean±SD of three experiments. Statistical significance was assessed by the two-sample t test (independent variable).

H460 cells [2] = experiment: glycolysis assay (3H2O from 5-[3H]glucose); assay type: cell-based, human
Description: H460 cells were exposed to the indicated concentrations of MPN-2 and glycolysis production was examined. Cells growing in 6-well plates were incubated in 500 μl of complete medium containing 1 μCi of 5-[^3H]glucose per well for 60 min in 5% CO2 at 37° C. Media was collected, ^3H2O formed via glycolysis from the 5-[^3H]glucose measured and counts normalized as previously described. For example, the medium was then collected and centrifuged to pellet any suspended cells. To separate the ^3H2O formed via glycolysis from the 5-[^3H]glucose added to the medium, an evaporation technique in a sealed system was utilized. Briefly, 150 μl aliquots of medium were added to open tubes that were placed upright inside scintillation vials containing 1 ml of H2O. The scintillation vials were sealed, and the ^3H2O produced by glycolysis through enolase and released to the medium was allowed to equilibrate with the H2O in the outer vial for 48 h at 37° C. The amounts of ^3H2O that had diffused into the surrounding H2O was measured on a Tri-Carb 2910 liquid scintillation analyzer (Perkin Elmer) and compared with ^3H2O and 5-[^3H]glucose standards. Protein concentration was determined using the BCA assay and counts were normalized to protein concentration. All data are expressed as the mean±SD of three experiments. Statistical significance was assessed by the two-sample t test (independent variable).
Method: To examine glycolysis, H460 cells growing in 6-well plates were incubated in 500 μl of complete medium containing 1 μCi of 5-[^3H] glucose per well for 60 min in 5% CO2 at 37° C. The medium was then collected and centrifuged to pellet any suspended cells. To separate the ^3H2O formed via glycolysis from the 5-[^3H]glucose added to the medium, an evaporation technique in a sealed system was utilized. Briefly, 150 μl aliquots of medium were added to open tubes that were placed upright inside scintillation vials containing 1 ml of H2O. The scintillation vials were sealed, and the ^3H2O produced by glycolysis through enolase and released to the medium was allowed to equilibrate with the H2O in the outer vial for 48 h at 37° C. The amounts of ^3H2O that had diffused into the surrounding H2O was measured on a Tri-Carb 2910 liquid scintillation analyzer (Perkin Elmer) and compared with ^3H2O and 5-[^3H]glucose standards. Protein concentration was determined using the BCA assay and counts were normalized to protein concentration (previously described in CHESNEY et al. Oncotarget. 2014; 5(16):6670-6686.)

H460 cells [3] = experiment: F2,6BP measurement in cells (coupled enzyme reaction); assay type: cell-based, human
Description: Cells or tissues were prepared as previously described and F2,6BP content measured using a coupled enzyme reaction following a modification of the method of Van Schaftingen et al (VAN SCHAFTINGEN E et al. “A kinetic study of pyrophosphate:fructose-6-phosphate phosphotransferase from potato tubers. Application to a microassay of fructose 2,6-bisphosphate” Eur J Biochem (1982) Vol. 129, No. 1, pp. 191-195) and normalized to total cellular protein measured by the bicinchoninic acid assay (BCA, Thermo Scientific). For example, H460 cells were exposed to the indicated concentrations of MPN-2. In order to measure F2,6BP, cells were harvested, washed with PBS, lysed in NaOH/Tris acetate by heating at 80° C. and lysates neutralized to pH 7.2. F2,6BP content was measured using a coupled enzyme reaction following a modified method of Van Schaftingen et al (VAN SCHAFTINGEN E et al. “A kinetic study of pyrophosphate:fructose-6-phosphate phosphotransferase from potato tubers. Application to a microassay of fructose 2,6-bisphosphate” Eur J Biochem (1982) Vol. 129, No. 1, pp. 191-195). The F2,6BP concentration was normalized to total cellular protein measured by the bicinchoninic acid assay (BCA, Thermo Scientific). All data are expressed as the mean±SD of three experiments. Statistical significance was assessed by the two-sample t test (independent variable).
Method: In order to measure F26BP, H460 cells were exposed to increasing concentrations of the agents and were harvested, washed with PBS, lysed in NaOH/Tris acetate by heating at 80° C. and lysates neutralized to pH 7.2. F26BP content was measured using a coupled enzyme reaction following a modified method of Van Schaftingen et al. (Eur J Biochem. 1982; 129(1):191-195). The F26BP concentration was normalized to total cellular protein measured by the bicinchoninic acid assay (BCA, Thermo Scientific).

[4] = system: Lewis lung carcinoma (LLC) tumors; experiment: Lewis lung carcinoma tumor growth in syngeneic mice; assay type: in vivo, C57BL/6 mice
Description: For xenograft studies, exponentially growing LLC or H460 cells were detached, washed and resuspended in PBS. Female C57BL/6 mice (Jackson Labs) were injected with LLC cells (n=10/group, s.c., 1×10^6 cells) and female BALB/c athymic mice (Jackson Labs) with H460 cells (n=10/group, s.c, 5×10^6 cells). Tumor masses were determined in a blinded fashion with Vernier calipers using the formula: mass (mg)=(width, mm)^2×(length, mm)/2 as previously described. When tumor masses were 150-200 mg, mice were randomized to daily intraperitoneal DMSO or 5MPN at the indicated dose in 50 μL DMSO. Tumor measurements and body weights were followed daily. All data are expressed as the mean±SD of two experiments. Statistical significance was assessed by the two-sample t test (independent variable).
Method: C57BL/6 mice (Charles River) were implanted with 1×10^6 Lewis lung carcinoma cells subcutaneously and, after tumors developed, were followed by caliper measurements daily to quantify tumor mass using the formula: tumor mass=(length×width^2)/2. When tumors were ˜150-200 mg, mice were randomized to daily oral DMSO±Formula (VIII) (n=10/group) at 40 mg/kg in 50 μL DMSO and tumor growth followed×9 days. (* signifies statistical significance)

[5] = H460, indicated concentrations of MPN-2, 48 hours

5-[(8-methoxy-2-methylquinolin-1-ium-4-yl)amino]pentyl nitrate [MPN-2]
ATP production (H460 cells [1]; [5]): decreased
intracellular glycolysis (H460 cells [2]; [5]): decreased
F2,6BP production (H460 cells [3]; H460, indicated concentrations of MPN-2): inhibited
tumor growth ([4]; intraperitoneal injection 10 mg/kg daily, eleven days): suppressed the growth

COc1cccc2c(NCCCCCO[N+](=O)[O-])ccnc12 [5MPN, 5-[(8-methoxyquinolin-4-yl)amino]pentyl nitrate]
ATP (H460 cells [1]; H460, 10 μM 5MPN, 6-72 hours): reduced
glycolysis (H460 cells [2]; H460, 10 μM 5MPN, 6-72 hours): reduced
intracellular concentration of F2,6BP (H460 cells [3]; H460, 10 μM 5MPN, 6-72 hours): reduced
effect of overexpression of PFKFB4 on reduction in F2,6BP (H460 cells [3]; H460 transfected with PFKFB4, 10 μM 5MPN, 24 hours): reversed
tumor growth ([4]; 5MPN 120 mg/kg oral daily, ten days): suppressed the growth
body weight ([4]; LLC-bearing mice, 120 mg/kg oral daily): without affecting body weight

COc1cccc2c(NCCCCCNC(=O)C(F)(F)F)ccnc12 [Formula (VIII), 2,2,2-trifluoro-N-(5-((8-methoxyquinolin-4-yl)amino)pentyl)acetamide]
established tumor growth ([4]; oral 40 mg/kg daily, 9 days): decreased established tumor growth

Reference: patent US10774046B2, “Inhibitors for the treatment of cancer and related methods” (UNIVERSITY OF LOUISVILLE RESEARCH FOUNDATION, INC., priority 2017, dated 2020)
